Results reported in patent US9353144B2, “Vascular leakage inhibitor” (INDUSTRY-ACADEMIC COOPERATION FOUNDATION, YONSEI UNIVERSITY, priority 2011, dated 2016).

What was measured:
[1] = system: HRECs (Human Retinal Endothelial Cells); experiment: Screening of synthesized derivatives for ability to inhibit serum depletion-induced vascular endothelial cell apoptosis (MTT assay, cell morphology); assay type: cell-based; conditions: serum-free, 10 μg/ml; for ability to inhibit apoptosis, ranking among synthetic derivatives and control groups: comparison with control groups; for ability to inhibit apoptosis compared with Sac-1004: relative to control Sac-1004
Procedure: FIGS. 1a-1c and FIGS. 2a-2c show the result of screening Rk1 analogs that protect HRECs (Human Retinal Endothelial Cells) from serum depletion-induced apoptosis. HRECs (3×10^5 cells/well) were seeded on a 24-well plate in EGM9 medium containing 20% fetal bovine serum. The next day, the cells were transferred to a medium containing 10 μg/mL of the synthesized compound. Cell viability was determined by MTT assay 48 hours later. […] Con is indicative of cells treated with DMSO.
(§1) Human retinal endothelial cells (HRECs) purchased from Cell Systems (USA) were seeded on a 100 mm culture dish containing EGM medium (Life Technologies, USA) containing 20% (w/v) fetal bovine serum (FBS, HyClone, Canada), 100 units/mL penicillin (Invitrogen, USA), 100 μg/mL streptomycin (Invitrogen, USA), 3 ng/mL fibroblast growth factor (Upstate Biotechnology, USA) and 5 units/mL heparin and cultured in a 5% CO2 incubator at 37° C.
Based on the previous researches conducted by the present inventors, synthesized derivatives of Rk1 having a steroid backbone and having an ability to inhibit vascular endothelial cell apoptosis were screened. Vascular endothelial cells HRECs (3×10^5 cells/well) were plated on a 24-well plate in which 1 ml of EGM medium containing 20% fetal bovine serum was present. The next day, the cells were transferred to serum-free EGM media containing 10 μg/ml of the compounds synthesized in Synthetic Examples 1 and 2. After 24 hours, cell viability was determined by MTT assay (Mosmann T, Journal of Immunological Methods 65(1-2):5563(1983); Cory A H, et al., Cancer Communications 3(7):20712(1991)).

[2] = system: HRECs (Human Retinal Endothelial Cells); experiment: Ability to inhibit apoptosis of Sac-1009, Sac-1104 and Sac-1019 according to concentration (serum removal, MTT assay); assay type: cell-based; conditions: for inhibition of apoptosis of HRECs, concentration dependence: serum-free EGM, 0, 0.1, 1, 5 and 10 μg/ml; for inhibition of apoptosis of HRECs, concentration dependence / concentration of the most effective ability to inhibit apoptosis: MTT after 48 hours, FIG. 3; for concentration of the most effective ability to inhibit apoptosis: serum-free EGM, tested 0-10 μg/ml; for cell viability of HRECs in a serum depletion environment: summary of test examples 1 and 2
Procedure: HRECs (3×10^5 cells/well) were seeded on a 24-well plate in EGM medium containing 20% fetal bovine serum. The next day, the cells were transferred to a serum depletion EGM medium containing Sac-1009, Sac-1104 or Sac-1019. Sac-1009, Sac-1104 and Sac-1019 were added into the medium at a concentration of 0, 0.1, 1, 5 or 10 μg/mL, respectively. Cell viability was determined by MTT assay 48 hours later.
as §1
After apoptosis was induced by removing serum from the medium of vascular endothelial cells, Sac-1009, Sac-1104, and Sac-1019 were applied to cells to measure the ability to inhibit apoptosis. Vascular endothelial cells HRECs (3×10^5 cells/well) were plated on a 24-well plate in which 1 ml of EGM medium containing 20% fetal bovine serum was present. The next day, the cells were transferred to serum-free EGM media containing Sac-1009, Sac-1104, and Sac-1019. Sac-1009, Sac-1104, and Sac-1019 were added at concentrations of 0, 0.1, 1, 5, and 10 μg/ml. After 48 hours, cell viability was determined by MTT assay.

[3] = system: HRECs (Human Retinal Endothelial Cells); experiment: Screening based on change in cytoskeleton: VEGF-induced actin stress fibers, rhodamine phalloidin staining; assay type: cell-based; conditions: for ability to inhibit the formation of actin stress fibers induced by VEGF: confluent HRECs pretreated with 10 μg/mL compound for 1 hour before 20 ng/ml VEGF, FIGS. 4 and 5; for abilities to inhibit the formation of actin stress fibers induced by VEGF and maintain the cortical actin ring structure, ranking: confluent HRECs, pretreated 1 hour, 20 ng/ml VEGF
Procedure: Confluent HRECs were pretreated with the compounds (10 μg/mL) for 60 minutes before treating with 20 ng/mL VEGF. The cells were then stained with rhodamine phalloidin.
as §1
It is known that the change in the actin structure of the cytoskeleton is closely related with the permeability of vascular endothelial cells. Increased permeability of vascular endothelial cells leads to an increase in actin stress fibers and a decrease in cortical actin ring structures. Based on this, the ability to inhibit vascular endothelial permeability of the synthesized derivatives of Rk1 was screened. Confluent HRECs were pretreated with […] the synthesized compounds for 1 hour before the treatment with 20 ng/ml VEGF (Upstate Biotechnology). Then, the cells were fixed with 4% paraformaldehyde for 20 minutes at room temperature, and washed 3 times with PBS (pH 7.4). Then, the cells were permeabilized with 0.1% Triton X-100/PBS, and reacted with 0.1 mg/ml rhodamine phalloidin (Molecular Probes) for 1 hour. Then, the cells were observed under a fluorescence microscope (Olympus).

[4] = system: HRECs (Human Retinal Endothelial Cells); conditions: cited from earlier work; for ability to inhibit apoptosis (derivatives of previous researches, control groups): obtained in the previous researches by the inventors (Korean Patent Application Publication No. 2011-0047170); for ability to inhibit apoptosis, comparison in the previous researches: relative to Rk1 or to other earlier derivatives

| SMILES | ability to inhibit apoptosis, ranking among synthetic derivatives and control groups [1] | ability to inhibit apoptosis compared with Sac-1004 [1] | inhibition of apoptosis of HRECs, concentration dependence [2] | concentration of the most effective ability to inhibit apoptosis [2] | cell viability of HRECs in a serum depletion environment [2] | ability to inhibit the formation of actin stress fibers induced by VEGF [3] | abilities to inhibit the formation of actin stress fibers induced by VEGF and maintain the cortical actin ring structure, ranking [3] | ability to inhibit apoptosis (derivatives of previous researches, control groups) [4] | ability to inhibit apoptosis, comparison in the previous researches [4] |
| --- | --- | --- | --- | --- | --- | --- | --- | --- | --- |
| CC(=O)OC[C@H]1OC(O[C@H]2CC[C@@]3(C)C(=CCC4C3CC[C@@]3(C)C4CC[C@@H]3/C(C)=N/OC3CCCC3)C2)C=C[C@@H]1OC(C)=O (stereo partly drawn) [Sac-1019] | the most excellent | equivalent to that of Sac-1004 | concentration-dependent manner | 10 µg/mL | increase cell viability | inhibit the formation of actin stress fibers induced by VEGF | the most excellent | – | – |
| COC(=O)CCC/C=C(\C)[C@H]1CCC2C3CC=C4C[C@@H](OC5C=C[C@H](OC(C)=O)[C@@H](COC(C)=O)O5)CC[C@]4(C)C3CC[C@@]21C (stereo partly drawn) [Sac-1004] | – | – | – | – | – | – | – | having an ability to inhibit apoptosis | the most excellent |
| CC(=O)OCC1OC(OC2CCC3(C)C(=CCC4C3CCC3(C)C(C(C)CCCC(C)C)CCC43)C2)C=CC1OC(C)=O (stereo not drawn) [Sac-0601] | – | – | – | – | – | – | – | having an ability to inhibit apoptosis | equivalent to that of Rk1 |
| CC(=O)OC[C@H]1OC(O[C@H]2CC[C@@]3(C)C(=CCC4C3CC[C@@]3(C)C4CC[C@@H]3/C(C)=N/OC3C=CCCC3)C2)C=C[C@@H]1OC(C)=O (stereo partly drawn) [Sac-1104] | the most excellent | equivalent to that of Sac-1004 | concentration-dependent manner | 10 µg/mL | increase cell viability | inhibit the formation of actin stress fibers induced by VEGF | the most excellent | – | – |
